The first data set has as its target T1, rat mGluR5 (Rattus norvegicus, UniProt P31424).
T1 construct: expressed in transfected cells
Kind of data set: mGluR5 calcium mobilization assay (HEK 293A cells, FDSS). The settings on record: HEK cells transfected with rat mGluR5; antagonism of glutamate EC80 response; Table 1. Format: cell-based. How it is done: Human embryonic kidney (HEK) cells transfected with rat or human mGluR5 were plated in clear bottom assay plates for assay in a Functional Drug Screening System (FDSS). The cells were loaded with a Ca2+-sensitive fluorescent dye (e.g., Fluo-4), and the plates were washed and placed in the FDSS instrument. Test compound was applied to cells 3 seconds after baseline readings were taken. Cells were incubated with the test compounds for 140 seconds and then stimulated with an EC20 concentration of an mGluR5 agonist (e.g., glutamate, 3,5-dihydroxyphenylglycine, or quisqualate); 60-80 seconds later an EC80 concentration of agonist was added and readings taken for an additional 40 seconds. Data were collected at 1 Hz. […] Concentration response curves were generated using a four parameter logistical equation.
The above described assay was operated in two modes. In the first mode (utilizing a triple add protocol), a range of concentrations of the present compounds were added to cells, followed by two single fixed concentrations of agonist (EC20 followed by EC80). If a compound acted as a potentiator, an EC50 value for potentiation of the EC20 response and a maximum extent of potentiation by the compound at this concentration of agonist was determined by non-linear curve fitting. If a compound acted as an antagonist, an IC50 value for antagonism of the EC80 response and a maximum extent of antagonism by the compound at this concentration of agonist was determined by non-linear curve fitting. In the second mode (utilizing a double add protocol), several fixed concentrations of the present compounds were added to various wells on a plate, followed by a range of concentrations of agonist for each concentration of present compound; the EC50 values for the agonist at each concentration of compound were determined by nonlinear curve fitting. A decrease in the EC50 value of the agonist with increasing concentrations of the present compounds (a leftward shift of the agonist concentration-response curve) is an indication of the degree of mGluR5 positive allosteric modulation at a given concentration of the present compound. An increase in the EC50 value of the agonist with increasing concentrations of the present compounds (a rightward shift of the agonist concentration response curve) is an indication of the degree of mGluR5 antagonism at a given concentration of the present compound. The second mode also indicates whether the present compounds also affect the maximum response to mGluR5 to agonists.
The mGluR5 activity was determined using the metabotropic glutamate receptor activity assays in human embryonic kidney cells as described herein, wherein the human embryonic kidney cells were transfected with rat mGluR5. The mGluR5 activity data for some compounds are shown as the average of at least three experiments with the standard error in these cases. If no error is indicated for the mGluR5 activity, the values given represent the results from a single experiment or the average of two experiments. The compounds in Table 1 were synthesized with methods identical or analogous to those shown herein. The requisite starting materials were commercially available, described in the literature, or readily synthesized by one skilled in the art of organic synthesis.
The cells were grown overnight at 37° C. in the presence of 5% CO2. […] Dye was removed, 20 μL of assay buffer was added, and the plate was incubated for 10 minutes at room temperature.
Ca^2+ flux was measured using the Functional Drug Screening System (FDSS6000, Hamamatsu, Japan). After establishment of a fluorescence baseline for about 3 seconds, the compounds of the present invention were added to the cells, and the response in cells was measured.
(In general: A change in cytosolic calcium serves as a functional read-out for many receptors and channels.)
T1 sequence (P31424 21-1171 isoform P31424-2 limits assumed): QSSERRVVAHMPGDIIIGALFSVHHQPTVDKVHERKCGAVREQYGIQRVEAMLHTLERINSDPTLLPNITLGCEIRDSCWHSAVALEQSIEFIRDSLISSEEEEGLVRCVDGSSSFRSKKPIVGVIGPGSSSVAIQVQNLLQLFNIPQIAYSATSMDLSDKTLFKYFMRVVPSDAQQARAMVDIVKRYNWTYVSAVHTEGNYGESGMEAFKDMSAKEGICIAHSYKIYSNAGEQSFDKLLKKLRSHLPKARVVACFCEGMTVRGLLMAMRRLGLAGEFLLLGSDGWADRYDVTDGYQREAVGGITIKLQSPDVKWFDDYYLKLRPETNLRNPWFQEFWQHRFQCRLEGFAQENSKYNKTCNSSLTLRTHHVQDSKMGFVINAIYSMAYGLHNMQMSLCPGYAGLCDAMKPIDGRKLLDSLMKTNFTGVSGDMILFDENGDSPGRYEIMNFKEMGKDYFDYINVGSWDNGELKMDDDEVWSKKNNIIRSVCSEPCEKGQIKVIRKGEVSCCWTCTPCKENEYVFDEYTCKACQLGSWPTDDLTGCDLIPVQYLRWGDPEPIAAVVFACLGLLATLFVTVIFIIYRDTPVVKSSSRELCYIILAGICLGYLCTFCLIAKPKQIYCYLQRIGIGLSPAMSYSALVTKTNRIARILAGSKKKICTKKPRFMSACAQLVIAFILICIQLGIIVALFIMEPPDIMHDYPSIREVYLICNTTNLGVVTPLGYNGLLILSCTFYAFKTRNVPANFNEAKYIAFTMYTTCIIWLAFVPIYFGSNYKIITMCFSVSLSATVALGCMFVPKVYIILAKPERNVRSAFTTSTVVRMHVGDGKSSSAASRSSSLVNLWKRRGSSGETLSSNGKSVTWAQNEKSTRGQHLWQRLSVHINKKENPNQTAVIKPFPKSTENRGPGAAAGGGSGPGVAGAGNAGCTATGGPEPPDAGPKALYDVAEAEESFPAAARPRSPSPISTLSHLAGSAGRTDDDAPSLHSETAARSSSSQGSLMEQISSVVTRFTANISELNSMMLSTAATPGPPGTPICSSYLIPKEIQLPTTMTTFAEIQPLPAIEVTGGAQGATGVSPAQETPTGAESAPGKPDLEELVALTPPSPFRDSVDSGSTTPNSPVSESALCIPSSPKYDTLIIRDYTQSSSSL
By IC50 is commonly meant the concentration that inhibits the measured activity by half. Take `Cc1cc(Oc2cnc(C)nc2)cc(C(=O)Nc2cc(F)ccn2)n1`: the IC50 amounted to 1890 nM.

In the case of `Cc1cccc(NC(=O)c2cc(Oc3cnc(C)nc3)cc(C)n2)n1`, the IC50 turned out to be 20 nM.

On to `Cc1cc(Oc2cnc(C)nc2)cc(C(=O)Nc2cccc(F)n2)n1`, for which the IC50 was found to be 21 nM.

Regarding `Cc1cc(Oc2cnc(C)nc2)cc(C(=O)Nc2ccc(Cl)cn2)n1`, the IC50 worked out at 209 nM.

As for `Cc1cc(Oc2ccc(C(F)(F)F)nc2)cc(C(=O)Nc2ccc(F)cn2)n1`, the IC50 was found to be 255 nM.

Consider `Cc1cc(Oc2ccc(C(F)(F)F)nc2)cc(C(=O)Nc2cc(F)ccn2)n1`, for which the concentration for half-maximal inhibition (IC50) amounted to 4880 nM.

As to `Cc1cccc(NC(=O)c2cc(Oc3ccc(C(F)(F)F)nc3)cc(C)n2)n1`, the IC50 was determined as 177 nM.

On to `Cc1cc(Oc2ccc(C(F)(F)F)nc2)cc(C(=O)Nc2cccc(F)n2)n1`, for which the IC50 amounted to 397 nM.

As for `Cc1cc(Oc2ccc(C(F)(F)F)nc2)cc(C(=O)Nc2ccc(Cl)cn2)n1`, the IC50 is above 30000 nM.

As for `Cc1cc(Oc2cncc(C#N)c2)cc(C(=O)Nc2cc(F)ccn2)n1`, the IC50 was 15 nM.

On to `Cc1cc(Oc2cncc(C#N)c2)cc(C(=O)Nc2ccc(F)cn2)n1`, for which the IC50 is 5.4 nM.

Take `CCc1cccc(NC(=O)c2cc(Oc3cccnc3)cc(C)n2)n1`: the IC50 came to 13 nM.

For `Cc1cc(Oc2cccnc2)cc(C(=O)Nc2ccc(Cl)cn2)n1`, the IC50 was determined as 5.5 nM.

Consider `Cc1ccc(NC(=O)c2cc(Oc3cccnc3)cc(C)n2)nc1`, for which the IC50 came out at 10 nM.

Regarding `CCc1cccc(NC(=O)c2cc(Oc3ccc(C)nc3)cc(C)n2)n1`, the IC50 amounted to 152 nM.

`Cc1ccc(Oc2cc(C)nc(C(=O)Nc3cc(F)ccn3)c2)cn1`: the IC50 is 1800 nM.

For `Cc1ccc(NC(=O)c2cc(Oc3ccc(C)nc3)cc(C)n2)nc1`, the IC50 came to 966 nM.

With `Cc1cc(Oc2cccnc2)cc(C(=O)Nc2ccc(F)cn2)n1`, the concentration for half-maximal inhibition (IC50) was 4.1 nM.

For the molecule `Cc1cc(Oc2cccnc2)cc(C(=O)Nc2cc(F)ccn2)n1`, the IC50 came out at 26 nM.

On to `Cc1ccc(Oc2cc(C)nc(C(=O)Nc3ccc(Cl)cn3)c2)cn1`, for which the IC50 worked out at 635 nM.

Take `Cc1cc(Oc2cccnc2)cc(C(=O)Nc2cc(C#N)ccn2)n1`: the IC50 was above 10000 nM.

Consider `Cc1cc(Oc2cccnc2)cc(C(=O)Nc2cccc(F)n2)n1`, for which the IC50 came to 3.4 nM.

With `Cc1cccc(NC(=O)c2cc(Oc3cccnc3)cc(C)n2)n1`, the IC50 amounted to 4.4 nM.

On to `Cc1ccc(Oc2cc(C)nc(C(=O)Nc3cccc(C)n3)c2)cn1`, for which the IC50 worked out at 13 nM.

Consider `Cc1ccc(Oc2cc(C)nc(C(=O)Nc3cc(C#N)ccn3)c2)cn1`, for which the IC50 was 387 nM.

Take `Cc1ccc(Oc2cc(C)nc(C(=O)Nc3ccc(F)c(C)n3)c2)cn1`: the IC50 was 328 nM.

With `Cc1cc(Oc2cncc(Cl)c2)cc(C(=O)Nc2cccc(F)n2)n1`, the 50% inhibitory concentration (IC50) is 5.3 nM.

For the molecule `Cc1ccc(NC(=O)c2cc(Oc3cncc(Cl)c3)cc(C)n2)nc1`, the IC50 was 6.4 nM.

Consider `Cc1cc(Oc2cncc(Cl)c2)cc(C(=O)Nc2cc(C#N)ccn2)n1`, for which the IC50 came to 548 nM.

Regarding `Cc1cccc(NC(=O)c2cc(Oc3cncc(Cl)c3)cc(C)n2)n1`, the IC50 is 6.7 nM.

For `Cc1cc(Oc2cccnc2)cc(C(=O)Nc2ccc(C#N)cn2)n1`, the concentration for half-maximal inhibition (IC50) was 14 nM.

On to `Cc1cc(Oc2cccnc2)cc(C(=O)Nc2ccc(C(F)(F)F)cn2)n1`, for which the IC50 worked out at 1110 nM.

For `Cc1ccc(Oc2cc(C)nc(C(=O)Nc3cccc(F)n3)c2)cn1`, the IC50 is 64 nM.

On to `Cc1ccc(Oc2cc(C)nc(C(=O)Nc3cccc(Cl)n3)c2)cn1`, for which the IC50 was 172 nM.

Take `Cc1ccc(Oc2cc(C)nc(C(=O)Nc3ccc(C#N)cn3)c2)cn1`: the IC50 is 693 nM.

Consider `Cc1ccc(Oc2cc(C)nc(C(=O)Nc3ccc(C(F)(F)F)cn3)c2)cn1`, for which the IC50 is above 30000 nM.

`Cc1cc(Oc2cncc(Cl)c2)cc(C(=O)Nc2ccc(Cl)cn2)n1`: the half-maximal inhibitory concentration (IC50) turned out to be 18 nM.

For the molecule `Cc1cc(Oc2cncc(Cl)c2)cc(C(=O)Nc2cccc(Cl)n2)n1`, the IC50 stood at 14 nM.

On to `Cc1cc(Oc2cncc(Cl)c2)cc(C(=O)Nc2ccc(C#N)cn2)n1`, for which the half-maximal inhibitory concentration (IC50) amounted to 11 nM.

With `Cc1cc(Oc2cncc(Cl)c2)cc(C(=O)Nc2ccc(F)c(C)n2)n1`, the IC50 came out at 14 nM.

Consider `CCc1cccc(NC(=O)c2cc(Oc3cncc(Cl)c3)cc(C)n2)n1`, for which the half-inhibitory concentration (IC50) is 14 nM.

In the case of `Cc1cc(Oc2cncc(Cl)c2)cc(C(=O)Nc2ccc(C(F)(F)F)cn2)n1`, the IC50 is above 10000 nM.

As to `CCc1cc(Oc2cncnc2)cc(C(=O)Nc2cccc(C)n2)n1`, the half-maximal inhibitory concentration (IC50) was 6.1 nM.

Consider `CCc1cc(Oc2cncc(F)c2)cc(C(=O)Nc2ccc(F)cn2)n1`, for which the IC50 is 11 nM.

As for `CCc1cc(Oc2cncnc2)cc(C(=O)Nc2cccc(Cl)n2)n1`, the IC50 came to 14 nM.

`CCc1cc(Oc2cncc(F)c2)cc(C(=O)Nc2ccc(C)cn2)n1`: the IC50 is 41 nM.

As for `CCc1cccc(NC(=O)c2cc(Oc3cncc(F)c3)cc(CC)n2)n1`, the IC50 is 468 nM.

`CCc1cc(Oc2cncc(F)c2)cc(C(=O)Nc2cc(F)ccn2)n1`: the IC50 is 333 nM.

Take `CCc1cc(Oc2cncc(F)c2)cc(C(=O)Nc2ccc(Cl)cn2)n1`: the concentration for half-maximal inhibition (IC50) came out at 333 nM.

For the molecule `CCc1cc(Oc2cncc(F)c2)cc(C(=O)Nc2cccc(Cl)n2)n1`, the concentration for half-maximal inhibition (IC50) is 59 nM.

`CCc1cc(Oc2cncnc2)cc(C(=O)Nc2ccc(C#N)cn2)n1`: the IC50 was 156 nM.

In the case of `CCc1cc(Oc2cncnc2)cc(C(=O)Nc2ccc(F)c(C)n2)n1`, the 50% inhibitory concentration (IC50) was 27 nM.

With `CCc1cc(Oc2cncnc2)cc(C(=O)Nc2cccc(F)n2)n1`, the half-inhibitory concentration (IC50) was 24 nM.

In the case of `CCc1cc(Oc2cncnc2)cc(C(=O)Nc2cc(C)c(F)cn2)n1`, the IC50 was found to be 677 nM.

In the case of `CCc1cc(Oc2cncc(F)c2)cc(C(=O)Nc2cccc(C)n2)n1`, the IC50 turned out to be 13 nM.

Regarding `CCc1cc(Oc2cncc(F)c2)cc(C(=O)Nc2ccc(C#N)cn2)n1`, the IC50 was determined as 108 nM.

With `CCc1cccc(NC(=O)c2cc(Oc3cncnc3)cc(CC)n2)n1`, the IC50 was 19 nM.

As to `CCc1cc(Oc2cncc(F)c2)cc(C(=O)Nc2ccc(F)c(C)n2)n1`, the IC50 came out at 159 nM.

Regarding `CCc1cc(Oc2cncnc2)cc(C(=O)Nc2ccc(F)cn2)n1`, the IC50 was found to be 9.3 nM.

Turning to `CCc1cc(Oc2cncnc2)cc(C(=O)Nc2ccc(C)cn2)n1`, the 50% inhibitory concentration (IC50) came to 27 nM.

Consider `CCc1cc(Oc2cncc(F)c2)cc(C(=O)Nc2cc(C)c(F)cn2)n1`, for which the IC50 is above 30000 nM.

Turning to `CCc1cc(Oc2cncnc2)cc(C(=O)Nc2ccc(Cl)cn2)n1`, the IC50 worked out at 25 nM.

Turning to `CCc1cc(Oc2cncc(F)c2)cc(C(=O)Nc2cccc(F)n2)n1`, the IC50 is 18 nM.

On to `Cc1cc(Oc2cncc(F)c2)cc(C(=O)Nc2cccc(Cl)n2)n1`, for which the IC50 amounted to 8.2 nM.

Take `CCc1cc(Oc2cncnc2)cc(C(=O)Nc2ccc(C(F)(F)F)cn2)n1`: the IC50 is above 30000 nM.

Consider `CCc1cc(Oc2cncc(F)c2)cc(C(=O)Nc2ccc(C(F)(F)F)cn2)n1`, for which the IC50 was above 30000 nM.

Take `Cc1cc(Oc2cncc(Cl)c2)cc(C(=O)Nc2ccccn2)n1`: the IC50 is 2.2 nM.

Consider `Cc1ccc(NC(=O)c2cc(Oc3cncnc3)cc(C(F)F)n2)nc1`, for which the IC50 turned out to be 72 nM.

Regarding `Cc1ccc(NC(=O)c2cc(Oc3cncc(F)c3)cc(C)n2)nc1`, the IC50 stood at 6.8 nM.

Tested on in another data set: not listed separately
The data set is described as follows: Rat IV/PO pharmacokinetics. The settings on record: in vivo; Rat IV/PO. An excerpt: Additional physicochemical and pharmacological data are provided below in Tables 2-4 for Test Compounds 1 and 2 (Compounds […] and (2) as described herein).
One may read the bioavailability as dose-corrected exposure relative to a reference, in per cent. Higher therefore signals good availability. The half-life is the time in which the quantity being followed falls by half. The molecule `Cc1cc(Oc2cncnc2)cc(C(=O)Nc2ccc(F)cn2)n1` [drawing 265] gave a bioavailability of 30 to 76%, a clearance of 19.2 mL/min/kg and a half-life of 0.47 h.

In the case of `Cc1cc(Oc2cncc(F)c2)cc(C(=O)Nc2ccc(F)cn2)n1` [drawing 266], the bioavailability was in the range of 67 to 75%, the clearance is 9.15 mL/min/kg and the half-life is 4.7 h.

Staying with this data set, now noted: in vivo; Rat IV/PO; read-out: Vss.
`Cc1cc(Oc2cncnc2)cc(C(=O)Nc2ccc(F)cn2)n1` [drawing 265]: the Vd is 1.78 L/kg.

Consider `Cc1cc(Oc2cncc(F)c2)cc(C(=O)Nc2ccc(F)cn2)n1` [drawing 266], for which the Vd worked out at 1.89 L/kg.

Still in this data set, the particulars now being: in vivo; Rat PO.
As a reminder, the Cmax is the highest concentration seen after dosing. The Tmax is the time at which the peak concentration occurs. For `Cc1cc(Oc2cncnc2)cc(C(=O)Nc2ccc(F)cn2)n1` [drawing 265], the Cmax came to 2170 nM and the time to peak (Tmax) was 0.5 h.

In the case of `Cc1cc(Oc2cncc(F)c2)cc(C(=O)Nc2ccc(F)cn2)n1` [drawing 266], the Cmax was found to be 3330 nM and the Tmax is 1.5 h.

Source of the values: US9085562B2, “6-alkyl-N-(pyridin-2-yl)-4-aryloxypicolinamide analogs as mGluR5 negative allosteric modulators and methods of making and using the same” (Vanderbilt University, priority 2011, dated 2015).
